The values that follow come from patent US7090985B2, “Methods for the identification of agents for the treatment of seizures, neurological diseases, endocrinopathies and hormonal diseases” (UCB, S.A., priority 2002, dated 2006).

Molecules are shown by their SMILES.

Series [1] concerns audiogenic-susceptible mouse. The note with it: cited from earlier work.
The conditions of series [2]: adjunctive therapy, adults; cited from earlier work.
Series [3] deals with T1, levetiracetam binding site (LBS) (Rattus norvegicus, UniProt Q02563). On the set-up: from tissue; host or cells: rat brain (crude membranes; 25 µm brain slices for autoradiography). The note with it: cited from earlier work.
The next series concerns the target T2, human SV2A (Homo sapiens, UniProt Q7L0J3).
T2 construct: expressed in transfected cells; host or cells: COS-7 cells, transient transfection (Lipofectamine 2000), vector pDEST 12.2
Kind of series: 3H-30889 intact cell binding to COS-7 cells transfected with SV2A. The note with it: displacement of 3H-30889, intact transfected COS-7 cells. The source says:
The human SV2A coding region was transferred from the pDONR GATEWAY cloning vector to a pDEST 12.2 Gateway expression vector. This vector has a CMV promoter driving the introduced gene, and an SV40 ori, which allows very high levels of replication in the COS-7 cell line, which contains the large T antigen. In addition, the human SV2A coding region was transferred into a pDEST 40 Gateway expression vector. This vector is very similar to the 12.2 vector above, with a CMV promoter driving expression of hSV2A, and an SV40 ori, and a Neomycin resistance gene.
Lipofectamine 2000 (Invitrogen) transfection reagent was used to transfect DNA into 90% confluent COS-7 cells. Also, the same reagent was used to transfect the hSV2A containing vector into the PC12a cell line, and selecting for antibiotic resistance. Anti-SV2 polyclonal antibody (CalBiochem) was used to test for expression in either transfected COS-7 cells, or transfected PC 12a cells, of the SV2A product. Lysates of the COS-7 cells were collected at 18 hrs after transfection on an SDS-PAGE gel, transferred to a membrane, and probed with a polyclonal antibody against SV2A, in comparison to crude rat brain membranes (FIG. 12A). Also shown are lysates from a non-transfected COS-7 cells, non-transfected PC12a cells (low in LBS), PC12bs cells (high in LBS), or PC 12a cells transfected with hSV2A (FIG. 12B). No labeling of protein bands is observed in the untransfected COS-7 control, while the transfected COS-7 cells show multiple bands, with most density in the range of 80–120 kD, perhaps due to multiple glycosylation states of the expressed protein. […]
In a binding experiment, specific binding was measured of ^3H-30889 to COS-7 cells that have either been transfected with SV2A-12.2, or as controls, a β-gal expressing vector, or cells that have not been transfected (FIG. 13). […] The cells were lysed on the plate, transferred to scintillation vials with scintillation fluid and counted for ^3H decay emission. […]

For series [4], the system named is peripheral tissues including heart, kidneys, spleen, pancreas, adrenals, lungs and liver. The note with it: radiolabel studies; cited from earlier work.
The subject of another series is PC12. The series is described as follows: [3H]ucb 30889 binding in cell types. Also noted: species or system rat. On the procedure: (§1) To identify and characterize the LBS in situ, ^[3H]ucb 30889 was used to map the LBS within the brain and to study both its cellular and subcellular distribution. […] Binding assays with rat brain membranes and various neuronal cell lines were performed under similar conditions. […] For photolabeling, membranes were incubated with […] ^[3H]ucb 30889 for 120 min at 4° C. in the same buffer, followed by irradiation with UV-light for 30 min.
(§2) Abbreviation: nd, not detected.

Another series has as its system COS-7. Kind of series: [3H]ucb 30889 binding in cell types. The note with it: untransfected COS-7 cell line. On the procedure: as §1, §2
In addition, a PC12 cell line subclone, PC12a, which is low in LBS, was used to establish a pool of PC12 cells expressing hSV2A under stable antibiotic selection.

A further series deals with peripheral tissues. Kind of series: [3H]ucb 30889 specific binding in peripheral tissues. The note with it: 150 μg of protein/assay, 1.3 nM radioligand; limit of detection Bmax 200 fmol/mg protein. On the procedure: The limit of detection under the experimental conditions (150 μg of protein/assay and 1.3 nM of radioligand) was a Bmax of 200 fmol/mg protein.
Series [5] concerns the target T1, levetiracetam binding site (LBS). The series is described as follows: [3H]ucb 30889 binding on crude rat brain membranes (kinetics, saturation, competition).

T2 sequence (Q7L0J3 whole entry): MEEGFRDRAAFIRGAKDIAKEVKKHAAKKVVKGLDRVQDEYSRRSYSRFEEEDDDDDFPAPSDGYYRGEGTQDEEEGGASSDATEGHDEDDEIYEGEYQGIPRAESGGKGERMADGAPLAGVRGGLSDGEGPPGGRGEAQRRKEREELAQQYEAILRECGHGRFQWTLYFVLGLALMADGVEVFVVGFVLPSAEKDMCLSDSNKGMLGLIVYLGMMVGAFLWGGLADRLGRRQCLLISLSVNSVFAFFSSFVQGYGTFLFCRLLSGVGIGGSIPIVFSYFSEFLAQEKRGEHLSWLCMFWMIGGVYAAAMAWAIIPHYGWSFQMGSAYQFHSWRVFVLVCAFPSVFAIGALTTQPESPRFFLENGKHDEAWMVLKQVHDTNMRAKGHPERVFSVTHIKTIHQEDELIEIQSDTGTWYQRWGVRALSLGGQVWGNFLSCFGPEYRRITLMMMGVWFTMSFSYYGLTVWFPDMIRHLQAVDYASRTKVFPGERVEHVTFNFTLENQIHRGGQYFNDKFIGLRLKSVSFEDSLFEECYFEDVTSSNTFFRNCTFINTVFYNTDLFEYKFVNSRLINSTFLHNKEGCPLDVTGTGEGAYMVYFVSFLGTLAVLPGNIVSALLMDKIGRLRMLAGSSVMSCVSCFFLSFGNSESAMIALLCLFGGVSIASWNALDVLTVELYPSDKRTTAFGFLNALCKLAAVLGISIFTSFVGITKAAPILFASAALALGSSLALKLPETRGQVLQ
T1 sequence (Q02563 whole entry): as the sequence (Q7L0J3 whole entry) above, with D53E, S62A, T71A, E144D, A154T, G440S, S482A, I572V, M634L counted along it

As for `CC[C@@H](C(N)=O)N1CCCC1=O` [levetiracetam, (S)-α-ethyl-2-oxo-1-pyrrolidine acetamide], the suppression of seizures result in series [1] was “unexpected potent ability”. Further, in series [2], the “efficacy in controlling refractory partial seizures” value is recorded as “effective” and the tolerability result is listed as “well tolerated”. In addition, in [3] (rat hippocampal membranes), the affinity result is “modest affinity” and the binding capacity result is reported as “high binding capacity”. The “IC50 against SV2A expressed in COS-7 cells (rank order)” value (from here on “IC50 against SV2A expressed”) on human SV2A is given as “same rank order as seen in studies of LBS in rat brain”. Moreover, in [4], the specific binding entry is on record as “no specific binding”.

In the series on PC12, `CC[C@@H](C(N)=O)N1CC(c2cccc(N=[N+]=[N-])c2)CC1=O` (stereo partly shown) [ucb 30889] returned a Bmax of 79000 sites/cell and a Kd of 0.05 µM. For the same compound, in the series with COS-7, the binding entry is recorded as “no binding above background”. The specific binding result in the series with peripheral tissues is on record as “could not be detected”. Besides, the “IC50 against SV2A expressed” value at human SV2A is on record as “same rank order as seen in studies of LBS in rat brain”. In [5], this compound showed a Kd of 0.042 µM and a Ki of 0.0794 µM.

As for `CC[C@H](C(N)=O)N1CCCC1=O` [ucb L060], the “times less affinity for the LBS than levetiracetam” value in series [3] (rat brain membranes) is reported as “about 1000 times”. Besides, the “IC50 against SV2A expressed” value on human SV2A is recorded as “same rank order as seen in studies of LBS in rat brain”.
